US20250009743A1, “METHODS OF TREATING CANCERS USING STING AGONISTS” (Dana-Farber Cancer Institute, Inc., priority 2021, published 2025)

Assays:
BP-sgControl tumors = experiment: BP-sgControl tumor growth and survival in FVB mice; assay type: in vivo, mouse; details: DMXAA 10 mg/kg i.p. weekly; olaparib 50 mg/kg i.p. q.d.; FIG. 11G
Protocol: Primary mammary tumor cells for orthotopic injection were resuspended in serum-free DMEM containing 40% matrigel (Corning). 5×10^5 tumor cells in a total volume of 100 μL were injected orthotopically into the thoracic mammary fat pads of 8-week-old female FVB/NJ mice (The Jackson Laboratory). Tumor growth was examined by measuring the greatest longitudinal diameter (length) and the greatest transverse diameter (width) with digital calipers, and tumor volume was calculated by use of the modified ellipsoid formula (0.52×length×width2). Tumors were measured 2-3 times a week. All tumor measurements within single cohorts were performed by the same researcher. Tumor-bearing mice were randomized prior to start of treatment. Drug treatments were started when mean tumor volumes approximated 50-100 mm3. Mice were euthanized by CO2 inhalation when tumor volumes met humane endpoints described in the IACUC (20 mm diameter) protocols or upon severe health deterioration.
Olaparib (MedChem, #HY-10162) was prepared by diluting 100 mg/l mL stocks in DMSO with 10% (2-Hydroxypropyl)-β-cyclodextrin (HPCD, MedChem, #101103) in PBS and administered immediately after drug preparation by intraperitoneal (i.p.) injection at a dose of 50 mg/kg body weight daily. DMXAA (Sigma, #D5817) was reconstituted at 10 mg/mL in 7.5% NaHCO3(Gibco). […]

PBM-R tumor cells = experiment: Measurement of IC50 value in PBM-R tumor cells (CellTiter-Glo); assay type: cell-based, mouse
Protocol: Tumor cells were seeded in 96-well plates at a density of 2000-3000/well and allowed to adhere overnight. Cells were then exposed to appropriate concentrations of therapeutic agents (or vehicle control) with continuous exposure for 72 h. Growth inhibition was measured by CellTiter-Glo® 2.0 Cell Viability Assay from Promega according to manufactory's introduction. IC50 values were calculated using non-linear regression model (logarithmic inhibitor vs. normalized response-variable slope) in Graphpad Prism 9.

PBM tumors = experiment: PBM ovarian tumor burden in syngeneic FVB/NJ mice; assay type: in vivo, mouse; details: olaparib 50 mg/kg i.p. 6 days a week; most tumors eventually progressed; FIG. 15B
Protocol: Tumor burden of PBM tumor-bearing mice treated with indicated agents was measured by bioluminescence (ROI, […]) after 2 weeks of treatment (control, n=6; olaparib, n=7, olaparib+MSA-2, n=4). Ordinary one-way ANOVA analysis. **, P<0.01; ***, P<0.001. The murine ovarian tumor model PBM used for this experiment was previously generated (Ding L, Kim H J, Wang Q, Kearns M, Jiang T, Ohlson C E, Li B B, Xie S, Liu J F, Stover E H, Howitt B E, Bronson R T, Lazo S, Roberts T M, Freeman G J, Konstantinopoulos P A, Matulonis U A, Zhao J J. PARP Inhibition Elicits STING-Dependent Antitumor Immunity in Brca1-Deficient Ovarian Cancer. Cell Rep. 2018 Dec. 11;25 (11): 2972-2980.e5. doi: 10.1016/j.celrep.2018.11.054. PMID: 30540933; PMCID: PMC6366450). About 2×10^5 PBM tumor cells were orthotopically transplanted into syngeneic FVB/NJ mice. Ten days after transplantation, Tumor-bearing mice were equivalently divided into control and treatment groups according to the luminescent intensity. Tumor burden of PBM tumor-bearing mice was measured by bioluminescence (ROI, […]). Olaparib (AZD2281) was administered daily by i.p. (intraperitoneal) injection at dose of 50 mg/kg body weight. […]
The PBM and PBM-R tumor cells were transplanted orthotopically into syngeneic FVB/NJ mice to generated tumors for drug evaluation. […] The endpoints were determined by tumor burden and ascites.

PBM tumor cells = experiment: Cytokine array of medium of PBM cells; assay type: cell-based, mouse; details: olaparib-treated PBM cells; FIG. 19F
Protocol: The PBM tumor cells were cultured in 6-well plate for 24 hrs and treated with olaparib or vehicle control. Drug was removed after 24 hrs' treatment, and cells were cultured in fresh medium for another 48 hrs. Cell culture supernatants were obtained by centrifugation at 1,500 g for 5 min at 4° C. to remove all the debris and cells then subjected to Cytokine array analysis (ARY028, R&D system) according to manufactories introduction. Briefly, the cell culture supernatants were mixed with a cocktail of biotinylated detection antibodies, and then incubated with the Mouse Cytokine Array. The array was then incubated with streptavidin-horseradish peroxidase followed by chemiluminescent detection. Array images were analyzed using the Image J software.

Q: With `Cc1ccc2c(=O)c3cccc(CC(=O)O)c3oc2c1C` [DMXAA, 5,6-dimethyl-xanthenone-4-acetic acid] as the compound, how does the BP-sgControl tumor growth (BP-sgControl tumors) read?
A: Its BP-sgControl tumor growth is “no significant impact”.

Q: How did the “IC50 values of 11 out of 12 PBM-R tumor lines” value (PBM-R tumor cells; 11 out of 12 PBM-R lines sensitive in vitro, FIG. 15C) turn out when `O=C(c1cc(Cc2n[nH]c(=O)c3ccccc23)ccc1F)N1CCN(C(=O)C2CC2)CC1` [olaparib] was run?
A: The value was “comparable to PBM tumor cells”.

Q: And the IC50 (PBM-R tumor cells; Mus musculus, PBM-R3 tumor cells, 72 h, FIG. 15C)?
A: The IC50 was 4.19 µM.

Q: And the IC50 fold (PBM-R tumor cells; PBM-R3 IC50 relative to 0.56 μM)?
A: Its IC50 fold is 7.48 folds.

Q: What about the PBM tumor response (PBM tumors) of the same compound?
A: Its PBM tumor response is “initial robust response”.

Q: And the “STAT3-regulated chemokines (CCL2, CX3CL1, CCL20 and CXCL1) in CM” value (PBM tumor cells)?
A: The value was “significantly increased”.
